Laboratory results published in paper PMC3466118 (Journal of medicinal chemistry, 2011).

Columns and labels:
[1] = tested on: retinoic acid differentiated SH-SY5Y human neuroblastoma cells treated with 30; test: Neuroprotection assay, cells stressed with compound 30; assay type: cell-based; conditions: for Neuroprotective effect: differentiated SH-SY5Y cells stressed with 100 μM of 30, 24 h, XTT
[2] = tested on: retinoic acid-differentiated SH-SY5Y neuroblastoma cells; test: Cytotoxicity in unstressed differentiated SH-SY5Y cells; assay type: cell-based, human; conditions: 0.5–50 μM, 24 h, XTT
[3] = tested on: acetylation of histone H4 in retinoic acid-differentiated SH-SY5Y cells; test: Acetylation of H4 in differentiated SH-SY5Y cells; assay type: cell-based, human; conditions: 1 μM, also in cells stressed with compound 30
[4] = tested on: HepG2, Hela and SH-SY5Y carcinoma cell lines; test: Antiproliferative activity across the three carcinoma cell lines; assay type: cell-based; conditions: Homo sapiens, read-out: EC50–48 h, span over the three cell lines
[5] = tested on: cleavage of caspase 3 in HepG2 cells; test: Western blot, activation/cleavage of caspase 3 in HepG2 cells; assay type: cell-based, human
[6] = tested on: acetylation of p53 in HepG2 cells; test: Western blot, acetylation of p53 in HepG2 cells; assay type: cell-based, human; conditions: HepG2 total cell extracts
recombinant human HDAC8 [7] = molecular target: T1, recombinant human HDAC8 (Homo sapiens, UniProt Q9BY41); test: HDAC8 inhibition, fluorescent substrate Fluor de Lys
T1 sequence (Q9BY41 1-377): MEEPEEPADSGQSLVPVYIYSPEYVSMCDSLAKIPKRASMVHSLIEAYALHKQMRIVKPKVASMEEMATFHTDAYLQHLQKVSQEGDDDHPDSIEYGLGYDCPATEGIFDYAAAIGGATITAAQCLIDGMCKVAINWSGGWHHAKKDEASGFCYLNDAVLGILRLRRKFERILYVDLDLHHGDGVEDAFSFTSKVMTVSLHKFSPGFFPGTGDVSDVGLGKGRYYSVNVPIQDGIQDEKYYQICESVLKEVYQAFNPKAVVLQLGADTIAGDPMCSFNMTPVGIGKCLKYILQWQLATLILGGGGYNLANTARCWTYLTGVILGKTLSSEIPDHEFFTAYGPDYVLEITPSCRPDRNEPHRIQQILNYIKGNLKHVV

[8] = molecular target: recombinant human HDAC3/NCoR2 (Homo sapiens, UniProt O15379); test: HDAC3 inhibition, fluorescent substrate Boc-L-Lys
recombinant human HDAC3/NCoR2, sequence (O15379 whole entry): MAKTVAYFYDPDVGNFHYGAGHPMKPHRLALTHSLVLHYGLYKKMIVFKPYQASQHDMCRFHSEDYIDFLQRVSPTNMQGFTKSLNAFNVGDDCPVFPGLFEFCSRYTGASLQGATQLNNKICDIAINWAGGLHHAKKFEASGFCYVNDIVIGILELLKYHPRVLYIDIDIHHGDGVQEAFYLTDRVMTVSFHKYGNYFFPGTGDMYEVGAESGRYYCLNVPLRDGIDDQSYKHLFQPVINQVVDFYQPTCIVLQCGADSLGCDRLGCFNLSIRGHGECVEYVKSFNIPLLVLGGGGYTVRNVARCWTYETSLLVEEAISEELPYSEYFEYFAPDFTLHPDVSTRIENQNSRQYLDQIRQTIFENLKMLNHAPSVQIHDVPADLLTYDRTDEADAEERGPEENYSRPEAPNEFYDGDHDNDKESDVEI
recombinant human HDAC3/NCoR2, sequence (Q9Y618 395-489 partner limits assumed): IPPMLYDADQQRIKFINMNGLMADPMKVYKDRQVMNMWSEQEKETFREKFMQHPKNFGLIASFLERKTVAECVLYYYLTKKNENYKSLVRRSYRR

recombinant human HDAC8 [9] = molecular target: T1, recombinant human HDAC8; conditions: cited from earlier work

EC50 [4]	Structure (SMILES)	Neuroprotective effect [1]	Cytotoxicity to differentiated neuroblastoma cells [2]	Hyperacetylation of histone H4 [3]	other results
	[N-]=[N+]=Nc1ccc(-c2cc(C(=O)NCCCCCCC(=O)NO)no2)cc1 [2a, 5-(4-Azidophenyl)isoxazole-3-carboxylic acid(6-hydroxycarbamoylhexyl)amide]	protect cells from stress induced by compound 30 at low micromolar concentrations	not overly cytotoxic	induce hyperacetylation of histone H4	
11 to 32 µM	[N-]=[N+]=NCc1cc(N=[N+]=[N-])cc(C(=O)Nc2ccc(-c3cc(C(=O)NCCCCCCC(=O)NO)no3)cc2)c1 [2b, 5-[4-(3-Azido-5-azidomethylbenzoylamino)phenyl]isoxazole-3-carboxylic acid (6-hydroxycarbamoylhexyl)amide]	protect cells from stress induced by compound 30 at low micromolar concentrations		induce hyperacetylation of histone H4	Cleavage of caspase 3 [5]: induced cleavage of caspase 3 by 14 h with maximum activation at 24 h; Acetylation of p53 [6]: neither SAHA nor 2b induced additional time and dose-dependent hyperacetylation of p53
10 to 23 µM	O=C(CCCCCCC(=O)Nc1cnn(Cc2ccccc2)c1)NO [3a, Octanedioic acid (1-benzyl-1H-pyrazol-4-yl)amide hydroxyamide]	non-neuroprotective	not toxic to the cells		
10 to 23 µM	[N-]=[N+]=Nc1ccc(Cn2cc(NC(=O)CCCCCCC(=O)NO)cn2)cc1 [3c, Octanedioic acid [1-(4-azidobenzyl)-1H-pyrazol-4-yl]amide hydroxyamide]	non-neuroprotective	not toxic to the cells		Fold better potency than 3a, HDAC8 (recombinant human HDAC8 [7]; compared with 3a): 2.7 fold; Fold better potency than 3a, HDAC3 ([8]; compared with 3a): 2.0 fold
24 to 36 µM	[N-]=[N+]=NCc1cc(Cn2cc(NC(=O)CCCCCCC(=O)NO)cn2)cc(N=[N+]=[N-])c1 [3f, Octanedioic acid [1-(3-azido-5-azidomethylbenzyl)-1H-pyrazol-4-yl]amide hydroxyamide]	protect cells from stress induced by compound 30 at low micromolar concentrations	subtle toxicity at 20 μM	induce hyperacetylation of histone H4	Cell survival relative to vehicle ([1]; 0.5 and 1 μM, differentiated SH-SY5Y cells stressed with 100 μM of 30): more than doubles the amount of cell survival; Fold more active towards HDAC8 than HDAC3 (selectivity) (recombinant human HDAC8 [7]; HDAC8 vs HDAC3): 8 fold; IC50 ratio compound/SAHA, HDAC3 [8]: ND ^e 4.74
	[N-]=[N+]=NCc1cc(COc2ccc(NC(=O)CCCCCCC(=O)NO)cc2)cc(N=[N+]=[N-])c1 [compound 1]				Fold decrease in HDAC8 inhibitory activity compared to SAHA (recombinant human HDAC8 [9]): 17 fold
